Experimental data reported in patent US20100267561A1, “HERBICIDAL PYRIDAZINONE DERIVATIVES” (priority 2007, published 2010).

Legend:
Assay type in all cases: in vivo
[1] = test system: common (oilseed) sunflower (Helianthus annuus); experiment: Test B pre-/postemergence plant response; conditions: Preemergence
Procedure, shortened: (§1)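 Seeds were sown and sprayed preemergence, while plants at 2 to 18 cm (1- to 4-leaf stage) got postemergence sprays. Compounds were formulated in a non-phytotoxic solvent mixture with surfactant. After 13 to 15 days in a greenhouse, injury was rated visually against untreated controls, 0 (no effect) to 100 (complete control).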

[2] = test system: common ragweed (Ambrosia elation); experiment: Test B pre-/postemergence plant response; conditions: for Ragweed plant response rating: 8 g ai/ha
Procedure, shortened: as §1

[3] = test system: eastern black (E.B.) nightshade (Solanum ptycanthum); experiment: Test B pre-/postemergence plant response; conditions: Preemergence
Procedure, shortened: as §1

[4] = test system: giant foxtail (Setaria faberii); experiment: Test B pre-/postemergence plant response; conditions: for Foxtail, Giant plant response rating: 8 g ai/ha
Procedure, shortened: as §1

[5] = test system: goosegrass (Eleusine indica); experiment: Test B pre-/postemergence plant response; conditions: for Goosegrass plant response rating: 8 g ai/ha
Procedure, shortened: as §1

[6] = test system: green foxtail (Setaria viridis); experiment: Test B pre-/postemergence plant response; conditions: for Foxtail, Green plant response rating: 8 g ai/ha
Procedure, shortened: as §1

[7] = test system: johnsongrass (Sorghum halepense); experiment: Test B pre-/postemergence plant response; conditions: for Johnsongrass plant response rating: 8 g ai/ha
Procedure, shortened: as §1

[8] = test system: large crabgrass (Digitaria sanguinalis); experiment: Test B pre-/postemergence plant response; conditions: for Crabgrass, Large plant response rating: 8 g ai/ha
Procedure, shortened: as §1

[9] = test system: pigweed (Amaranthus retroflexus); experiment: Test B pre-/postemergence plant response; conditions: for Pigweed plant response rating: 8 g ai/ha
Procedure, shortened: as §1

[10] = test system: velvetleaf (Abutilon theophrasti); experiment: Test B pre-/postemergence plant response; conditions: for Velvetleaf plant response rating: 8 g ai/ha
Procedure, shortened: as §1

wild oat (Avena fatua) = experiment: Test B pre-/postemergence plant response; conditions: for Oat, Wild plant response rating: 8 g ai/ha
Procedure, shortened: as §1

[11] = test system: woolly cupgrass (Eriochloa villosa); experiment: Test B pre-/postemergence plant response; conditions: for Cupgrass, Woolly plant response rating: 8 g ai/ha
Procedure, shortened: as §1

[12] = test system: ducksalad (Heteranthera limosa); experiment: Test B flooded paddy test plant response
Procedure, shortened: (§2)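 Compounds were added directly to paddy water over 2-leaf-stage plants in pots flooded 3 cm above soil, water depth maintained. Visual injury scored against controls after 13 to 15 days in greenhouse, 0 (none) to 100 (complete control); dash indicates no result.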

rice (Oryza sativa) = experiment: Test B flooded paddy test plant response
Procedure, shortened: as §2

[13] = 16 g ai/ha, scale 0 to 100 (0 no effect, 100 complete control)
[14] = 31 g ai/ha, 0 to 100 scale, 0 no effect, 100 complete control
[15] = Postemergence, 16 g ai/ha, scale 0 to 100
[16] = Postemergence, 31 g ai/ha, scale 0 to 100, 0 no effect, 100 complete control
[17] = Postemergence, 62 g ai/ha, scale 0 to 100, 0 no effect, 100 complete control
[18] = Preemergence, 16 g ai/ha, scale 0 to 100 (0 no effect, 100 complete control)
[19] = Preemergence, 31 g ai/ha, 0 to 100 scale, 0 no effect, 100 complete control
[20] = Preemergence, 62 g ai/ha, scale 0 to 100
[21] = Flood (flooded paddy test), 62 g ai/ha, scale 0 to 100, 0 no effect, 100 complete control
[22] = Flood (flooded paddy test), 125 g ai/ha, scale 0 to 100, 0 no effect, 100 complete control
[23] = Flood (flooded paddy test), 250 g ai/ha, scale 0 to 100, 0 no effect, 100 complete control
[24] = Flood, 31 g ai/ha, scale 0 to 100

Cc1cc(-c2ccc(Cl)cc2)nn1-c1c(OC(=O)C(C)C)cnn(C)c1=O [Compound 34]
60: Foxtail, Green plant response rating ([6]; postemergence, 0-100 scale)
40: Oat, Wild plant response rating (wild oat (Avena fatua); Preemergence, scale 0 to 100) | Plant response rating, Ducksalad [12, 23] | Plant response rating, Rice (rice (Oryza sativa); [21])
75: Johnsongrass plant response rating ([7]; postemergence, 0-100 scale) | Cupgrass, Woolly plant response rating ([11]; postemergence, 0-100 scale)
80: Foxtail, Giant plant response rating ([4]; postemergence, 0-100 scale) | Plant response rating, Goosegrass [5, 17] | Plant response rating, Crabgrass, Large [8, 15] | Plant response rating, Rice (rice (Oryza sativa); [23])
70: Plant response rating, Goosegrass [5, 16] | Crabgrass, Large plant response rating ([8]; postemergence, 0-100 scale) | Oat, Wild plant response rating (wild oat (Avena fatua); postemergence, 0-100 scale) | Plant response rating, Rice (rice (Oryza sativa); [22])
98: Foxtail, Giant plant response rating ([4]; Preemergence, scale 0 to 100) | Plant response rating, Goosegrass [5, 19] | Plant response rating, Johnsongrass [7, 16]
100: Plant response rating, Foxtail, Giant [4, 16] | Plant response rating, Foxtail, Giant [4, 17] | Plant response rating, Foxtail, Giant [4, 18] | Plant response rating, Foxtail, Giant [4, 19] | Plant response rating, Foxtail, Giant [4, 20] | Plant response rating, Goosegrass [5, 20] | Plant response rating, Foxtail, Green [6, 16] | Plant response rating, Foxtail, Green [6, 17] | Plant response rating, Foxtail, Green [6, 18] | Plant response rating, Foxtail, Green [6, 19] | Plant response rating, Foxtail, Green [6, 20] | Foxtail, Green plant response rating ([6]; Preemergence, scale 0 to 100) | Plant response rating, Johnsongrass [7, 17] | Plant response rating, Johnsongrass [7, 19] | Plant response rating, Johnsongrass [7, 20] | Plant response rating, Crabgrass, Large [8, 17] | Plant response rating, Crabgrass, Large [8, 18] | Plant response rating, Crabgrass, Large [8, 19] | Plant response rating, Crabgrass, Large [8, 20] | Crabgrass, Large plant response rating ([8]; Preemergence, scale 0 to 100) | Plant response rating, Oat, Wild (wild oat (Avena fatua); [17]) | Plant response rating, Cupgrass, Woolly [11, 16] | Plant response rating, Cupgrass, Woolly [11, 17]
50: Goosegrass plant response rating ([5]; postemergence, 0-100 scale)
65: Johnsongrass plant response rating ([7]; Preemergence, scale 0 to 100)
0: Plant response rating, Sunflower [1, 13] | Plant response rating, Sunflower [1, 14] | Plant response rating, Sunflower ([1]; 62 g ai/ha, scale 0 to 100) | Sunflower plant response rating ([1]; 8 g ai/ha, scale 0 to 100) | Ragweed plant response rating ([2]; postemergence, 0-100 scale) | Plant response rating, Ragweed [2, 15] | Plant response rating, Ragweed [2, 16] | Plant response rating, Ragweed [2, 17] | Plant response rating, Ragweed [2, 18] | Plant response rating, Ragweed [2, 19] | Plant response rating, Ragweed [2, 20] | Ragweed plant response rating ([2]; Preemergence, scale 0 to 100) | Plant response rating, Nightshade, E. B. [3, 13] | Plant response rating, Nightshade, E. B. [3, 14] | Plant response rating, Nightshade, E. B. ([3]; 62 g ai/ha, scale 0 to 100) | Nightshade, E. B. plant response rating ([3]; 8 g ai/ha, scale 0 to 100) | Pigweed plant response rating ([9]; postemergence, 0-100 scale) | Plant response rating, Pigweed [9, 15] | Plant response rating, Pigweed [9, 16] | Plant response rating, Pigweed [9, 17] | Plant response rating, Pigweed [9, 18] | Plant response rating, Pigweed [9, 19] | Plant response rating, Pigweed [9, 20] | Pigweed plant response rating ([9]; Preemergence, scale 0 to 100) | Velvetleaf plant response rating ([10]; postemergence, 0-100 scale) | Plant response rating, Velvetleaf [10, 15] | Plant response rating, Velvetleaf [10, 17] | Plant response rating, Velvetleaf [10, 18] | Plant response rating, Velvetleaf [10, 19] | Plant response rating, Velvetleaf [10, 20] | Velvetleaf plant response rating ([10]; Preemergence, scale 0 to 100) | Plant response rating, Ducksalad [12, 21] | Plant response rating, Ducksalad [12, 24] | Plant response rating, Rice (rice (Oryza sativa); [24])
90: Plant response rating, Foxtail, Giant [4, 15] | Plant response rating, Foxtail, Green [6, 15] | Plant response rating, Oat, Wild (wild oat (Avena fatua); [15]) | Plant response rating, Oat, Wild (wild oat (Avena fatua); [20]) | Plant response rating, Cupgrass, Woolly [11, 15] | Plant response rating, Cupgrass, Woolly [11, 18]
85: Plant response rating, Goosegrass [5, 18] | Plant response rating, Oat, Wild (wild oat (Avena fatua); [19])
30: Plant response rating, Ducksalad [12, 22]
95: Plant response rating, Johnsongrass [7, 15] | Plant response rating, Johnsongrass [7, 18] | Plant response rating, Crabgrass, Large [8, 16] | Plant response rating, Oat, Wild (wild oat (Avena fatua); [16]) | Plant response rating, Cupgrass, Woolly [11, 19] | Plant response rating, Cupgrass, Woolly [11, 20]
55: Plant response rating, Goosegrass [5, 15] | Goosegrass plant response rating ([5]; Preemergence, scale 0 to 100) | Cupgrass, Woolly plant response rating ([11]; Preemergence, scale 0 to 100)
